Key:
[1] = tested on: phospho-PLCγ1 in Jurkat cells; assay: ITK target modulation PLC-γ assay (phospho-PLCγ1, αCD3-stimulated Jurkat cells); assay type: cell-based, human; details: Homo sapiens, 1 hour compound incubation, αCD3 Dynabeads stimulation 8 minutes, MSD phospho-PLCγ1, read-out: PLC-γ Inhibition IC50
Experimental: Jurkat cells, an immortalized human T-lymphocyte cell line, were maintained in RPMI media, 10% FBS, 1% pen/strep/glutamine (growth media). Cells were plated in growth media plus 50 μM β-mercaptoethanol at 400,000 cells per well of a 96 well plate.
Compounds were serially diluted into DMSO, and then into media to concentrations 10× that of the final assay concentration. Compounds were then added to the cells with the final assay DMSO concentration being 0.1%. Cells were incubated for 1 hour at 37° C.
Following compound incubation, αCD3 Dynabeads were added at 1 bead/cell to each assay well and incubated at 37° C. for 7 minutes. Unstimulated control wells received media only. The plate was then placed on a 96-well magnetic plate for an additional 60 seconds (total assay stimulation time equals 8 minutes). The plate was then dumped and gently patted dry on a paper towel. 50 μl of complete Meso Scale Discovery (MSD) Lysis buffer was then added to each well. Samples were assayed for phospho-PLCγ1 using Meso Scale Discovery technology.
The assay stimulation time has been optimized for detection of Itk kinase-mediated phosphorylation of PLCγ1. The timing and detection reagents for this assay could be adjusted to capture phosphorylation events upstream (e.g., phospho-ZAP70) or downstream of the Itk/PLCγ1 node, provided the appropriate phospho-specific antibodies are available for building of an MSD assay.

ITK = ITK (Homo sapiens (Human), UniProt Q08881); assay: ITK inhibitor binding potency (LanthaScreen competitive binding assay); details: TR-FRET tracer-236 displacement, 10 nM ITK; pre-incubation condition not given; read-out: ITK Inhibition IC50
Description: The ability of candidate compounds to interact with ITK is quantitated by a competitive binding assay using the LanthaScreen technology developed by Life Technologies. This assay is based on the binding of a proprietary, Alexa Fluor® 647-labeled, ATP-competitive kinase inhibitor (kinase tracer-236) to the ITK expression construct in the presence of a Europium-conjugated antibody, resulting in a FRET (fluorescence resonance energy transfer) signal. Displacement of the kinase tracer by compound results in a lower emission ratio upon excitation of the Europium chelate. Candidate compounds are designed as potential irreversible inhibitors of ITK, capable of ligating to an active site cysteine residue resulting in time dependent covalent binding. The time dependent nature of irreversible inhibition is investigated by performing the binding assay with and without a pre-incubation of compound and ITK. […] The inhibitory potency of candidate compounds is measured in 20 mM HEPES pH 7.5, 10 mM MgCl2, 0.01% BSA, 0.0005% Tween-20, and 2% DMSO in the presence of 10 nM ITK, 2 nM Eu-anti-GST antibody, and 50 nM kinase tracer-236 using a 384-well plate format. Background signal is defined in the absence of ITK and uninhibited signal is defined in the presence of vehicle (2% DMSO) alone. Compounds were evaluated in an 11 point dose-response ranging from 20 uM to 0.34 nM. The binding assays are performed under two preincubation conditions to evaluate time dependence of inhibition. For the pre-incubation assay, ITK and Eu-anti-GST antibody are pre-incubated with compound or vehicle for two hours prior to the addition of kinase tracer. The non-preincubated assay is run under conditions where ITK and Eu-anti-GST antibody are added to a mixture of compound and kinase tracer. IC50 values of compounds are determined using a 4 parameter logistical fit of emission ratio as a function of the concentration of compound.

Chain of ITK (Q08881 whole entry): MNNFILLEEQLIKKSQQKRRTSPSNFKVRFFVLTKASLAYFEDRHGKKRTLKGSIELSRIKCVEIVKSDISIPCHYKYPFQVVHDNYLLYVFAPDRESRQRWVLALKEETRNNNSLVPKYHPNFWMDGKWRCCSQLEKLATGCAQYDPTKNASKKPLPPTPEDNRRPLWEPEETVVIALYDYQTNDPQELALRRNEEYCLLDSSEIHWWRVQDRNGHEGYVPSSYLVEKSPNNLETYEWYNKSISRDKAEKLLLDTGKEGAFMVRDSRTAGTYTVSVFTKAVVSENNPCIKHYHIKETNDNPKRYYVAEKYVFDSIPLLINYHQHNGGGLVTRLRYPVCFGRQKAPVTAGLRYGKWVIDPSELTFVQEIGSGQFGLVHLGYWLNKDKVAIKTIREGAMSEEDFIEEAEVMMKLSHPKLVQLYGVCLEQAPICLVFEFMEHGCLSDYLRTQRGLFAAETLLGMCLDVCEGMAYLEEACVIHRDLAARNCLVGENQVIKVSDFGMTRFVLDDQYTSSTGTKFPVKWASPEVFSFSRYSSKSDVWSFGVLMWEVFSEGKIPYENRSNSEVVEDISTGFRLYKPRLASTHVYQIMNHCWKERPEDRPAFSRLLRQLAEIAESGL

With `O=C(/C=C/CN1CCOCC1)Nc1cccc(-c2cnc3[nH]cc(-c4ccncc4)c3c2)c1` [Example 23, (E)-4-morpholino-N-(3-(3-(pyridin-4-yl)-1H-pyrrolo[2,3-b]pyridin-5-yl)phenyl)but-2-enamide] the IC50 [1] was 1 to 5 µM and the IC50 (ITK) was no more than 1000 nM.

In the case of `CN(C)C/C=C/C(=O)Nc1cccc(-c2cnc3[nH]cc(-c4ccncc4)c3c2)c1` [Example 24, (E)-4-(dimethylamino)-N-(3-(3-(pyridin-4-yl)-1H-pyrrolo[2,3-b]pyridin-5-yl)phenyl)but-2-enamide], the IC50 [1] is reported as less than 1 µM and the IC50 (ITK) is reported as no more than 1000 nM.

`C=CC(=O)Nc1cncc(-c2cnc3[nH]cc(-c4ccnc(C)c4)c3c2)c1` [Example 28, N-(5-(3-(2-methylpyridin-4-yl)-1H-pyrrolo[2,3-b]pyridin-5-yl)pyridin-3-yl)acrylamide] gave an IC50 [1] of less than 1 µM and an IC50 (ITK) of no more than 1000 nM.

`CN(C)C/C=C/C(=O)Nc1cccc(-c2cnc3[nH]cc(-c4ccc(=O)n(C)c4)c3c2)c1` [Example 34, (E)-4-(dimethylamino)-N-(3-(3-(1-methyl-6-oxo-1,6-dihydropyridin-3-yl)-1H-pyrrolo[2,3-b]pyridin-5-yl)phenyl)but-2-enamide] showed an IC50 [1] greater than 5 µM and an IC50 (ITK) greater than 1000 nM.

`C=CC(=O)NC1CN(c2cnc3[nH]cc(-c4ccnc(F)c4)c3c2)C1` [Example 35, N-(1-(3-(2-fluoropyridin-4-yl)-1H-pyrrolo[2,3-b]pyridin-5-yl)azetidin-3-yl)acrylamide] was tested, and the IC50 [1] was greater than 5 µM and the IC50 (ITK) was no more than 1000 nM.

`C=CC(=O)NC1CN(c2cnc3[nH]cc(-c4ccnc(NC)c4)c3c2)C1` [Example 36, N-(1-(3-(2-(methylamino)pyridin-4-yl)-1H-pyrrolo[2,3-b]pyridin-5-yl)azetidin-3-yl)acrylamide] showed an IC50 [1] greater than 5 µM and an IC50 (ITK) of no more than 1000 nM.

`COc1cc(-c2c[nH]c3ncc(-c4cccc(NC(=O)/C=C/CN(C)C)c4)cc23)ccn1` [Example 37, (E)-4-(dimethylamino)-N-(3-(3-(2-methoxypyridin-4-yl)-1H-pyrrolo[2,3-b]pyridin-5-yl)phenyl)but-2-enamide] was tested, and the IC50 [1] was 1 to 5 µM and the IC50 (ITK) was no more than 1000 nM.

Molecule `COc1cc(-c2c[nH]c3ncc(-c4cccc(NC(=O)/C=C/CN5CCOCC5)c4)cc23)ccn1` [Example 38, (E)-N-(3-(3-(2-methoxypyridin-4-yl)-1H-pyrrolo[2,3-b]pyridin-5-yl)phenyl)-4-morpholinobut-2-enamide] has an IC50 [1] greater than 5 µM and an IC50 (ITK) of no more than 1000 nM.

`C=CC(=O)Nc1cccc(-c2cnc3[nH]cc(-c4cc(OC)ncn4)c3c2)c1` [Example 39, N-(3-(3-(6-methoxypyrimi-din-4-yl)-1H-pyrrolo[2,3-b]pyridin-5-yl)phenyl)acryl-amide] showed an IC50 [1] of 1 to 5 µM and an IC50 (ITK) of no more than 1000 nM.

`C=CC(=O)Nc1cc(-c2cnc3[nH]cc(-c4ccnc(OC)c4)c3c2)cc(N2CCOCC2)n1` [Example 41, N-(4-(3-(2-methoxypyridin-4-yl)-1H-pyrrolo[2,3-b]pyridin-5-yl)-6-morpholinopyri-din-2-yl)acrylamide] was tested, and the IC50 [1] was less than 1 µM and the IC50 (ITK) was no more than 1000 nM.

Work on `C=CC(=O)Nc1cc(-c2cnc3[nH]cc(-c4ccnc(OC)c4)c3c2)cc(OC(C)C)n1` [Example 45, N-(6-isopropoxy-4-(3-(2-methoxypyridin-4-yl)-1H-pyrrolo[2,3-b]pyridin-5-yl)pyridin-2-yl)acrylamide] yielded an IC50 [1] of 1 to 5 µM and an IC50 (ITK) of no more than 1000 nM.

`C=CC(=O)Nc1cccc(-c2cnc3[nH]cc(-c4ccc(C(=O)Nc5ccc(C)cc5C)cc4)c3c2)c1` [Example 67, 4-(5-(3-acrylamidophen-yl)-1H-pyrrolo[2,3-b]pyridin-3-yl)-N-(2,4-dimethylphenyl) benzamide] gave an IC50 [1] of less than 1 µM and an IC50 (ITK) greater than 1000 nM.

In the case of `C=CC(=O)Nc1cccc(-c2cnc3[nH]cc(-c4c[nH]c(=O)c5ccccc45)c3c2)c1` [Example 69, N-(3-(3-(1-oxo-1,2-dihydroisoquino-lin-4-yl)-1H-pyrrolo[2,3-b]pyridin-5-yl)phenyl)acryl-amide], the IC50 [1] is reported as greater than 5 µM and the IC50 (ITK) is reported as no more than 1000 nM.

Source: patent US9695200B2, “Heterocyclic ITK inhibitors for treating inflammation and cancer” (Confluence Life Sciences, Inc., priority 2015, dated 2017)
